Test system: SRS-A induced contraction of guinea pig ileum
Assay: inhibition of SRS-A induced contraction of guinea pig ileum (SRS-A antagonist activity)
Assay type: cell-based
Settings: Cavia porcellus, 0.25 h, partially purified SRS-A from guinea pig lung, 40 μg/ml, 15 minutes incubation, read-out: percent antagonism of SRS-A; for inhibition at 5 µM: 5×10^-6 M
Protocol: The SRS-A antagonist activity of the compounds of this invention is measured by the ability of the active medicament to inhibit SRS-A induced contraction of guinea pig ileum. In this test system, sections of ileum are resected from guinea pigs and placed in 5 ml. tissue baths containing a modified Tyrode's solution. One end of the tissue is fixed to a glass tissue holder, the other is connected to a force-displacement transducer and the tissue is placed under a tension of 500 mg. Isometric tissue contractions are recorded on a six channel polygraph. Baths are constantly aerated with 95% O2 -5% CO2. After a 20 minute stabilization period a concentration of the appropriate agonist which provides a contraction height of 60-80% of the maximum obtainable to that agonist (as determined from full sequential concentration-response curves in separate experiments) is added to the tissue bath and the response recorded. The procedure is repeated until reproducible responses are obtained. For most agonists, two applications in rapid succession, followed 15 minutes later by a third, is sufficient to establish reproducibility. Experimental tissues are incubated with the selected concentration of the test compounds for 15 minutes. Experimental and control tissues are subjected to 5 bath changes during the incubation interval. Changes in bath fluid during the incubation period are helpful in insuring the reproducibility of tissue responses to the agonist. The same concentration of the agonist is reapplied in the presence of the test compound and the response registered and compared with controls. Percent inhibition produced by the test compound is calculated by substracting the mean percentage change in control tissue from the mean percentage change in tissues exposed to the test compound. Additional compounds are then evaluated as long as the tissue remains reproducibly responsive to the agonist. Six tissues obtained from 6 animals are used simultaneously--3 controls and 3 experimental. […]

## O=S(=O)(N[C@@H]1C[C@H]1c1ccc(Cl)c(Cl)c1)NS(=O)(=O)N[C@@H]1C[C@H]1c1ccc(Cl)c(Cl)c1 (relative stereo) [Compound 2, 1,5-di[trans-2-(3,4-dichlorophenyl)cyclopropyl]imidodisulfamide]
  inhibition at 5 µM: 60%

## O=S(=O)(N[C@@H]1C[C@H]1c1ccccc1)NS(=O)(=O)N[C@@H]1C[C@H]1c1ccccc1 (relative stereo) [Compound 1, 1,5-Di[TRANS-2-PHENYLCYCLOPROPYL]IMIDODISULFAMIDE]
  inhibition at 5 µM: 17%

## O=S(=O)(N[C@@H]1CCCC[C@@H]1c1ccccc1)NS(=O)(=O)N[C@@H]1CCCC[C@@H]1c1ccccc1 (relative stereo) [Compound 3, 1,5-di[cis-2-phenylcyclohexyl]imidodisulfamide]
5×10^-5 M
  inhibition at 50 µM: 86%
